Test results: patent publication US20120258993A1, “NON-NATURAL MACROCYCLIC AMIDE HDAC6 INHIBITOR COMPOUNDS AND THEIR USES AS THERAPEUTIC AGENTS” (SIGMA-TAU INDUSTRIE FARMACEUTICHE RIUNITE S.P.A., priority 2009, published 2012)

Legend:
Assay in all cases: HDAC enzyme inhibition, fluorogenic peptide substrate
Assay type in all cases: biochemical
Settings in all cases: purified human enzyme, fluorogenic peptide substrate 10 μM
HDAC5 = HDAC5 (Homo sapiens, UniProt Q9UQL6)
Experimental: (§1) The substrate was incubated with the eleven single HDAC purified enzymes. Upon its deacetylation, the fluorophore was released given rise to fluorescence emission. The latter was detected by a fluorimeter, and the IC50 values of the compounds were determined by analyzing dose-response inhibition curves. TSA and SAHA were used as reference compounds.

HDAC4 = HDAC4 (Homo sapiens, UniProt P56524)
Sequence of HDAC4 (P56524 whole entry): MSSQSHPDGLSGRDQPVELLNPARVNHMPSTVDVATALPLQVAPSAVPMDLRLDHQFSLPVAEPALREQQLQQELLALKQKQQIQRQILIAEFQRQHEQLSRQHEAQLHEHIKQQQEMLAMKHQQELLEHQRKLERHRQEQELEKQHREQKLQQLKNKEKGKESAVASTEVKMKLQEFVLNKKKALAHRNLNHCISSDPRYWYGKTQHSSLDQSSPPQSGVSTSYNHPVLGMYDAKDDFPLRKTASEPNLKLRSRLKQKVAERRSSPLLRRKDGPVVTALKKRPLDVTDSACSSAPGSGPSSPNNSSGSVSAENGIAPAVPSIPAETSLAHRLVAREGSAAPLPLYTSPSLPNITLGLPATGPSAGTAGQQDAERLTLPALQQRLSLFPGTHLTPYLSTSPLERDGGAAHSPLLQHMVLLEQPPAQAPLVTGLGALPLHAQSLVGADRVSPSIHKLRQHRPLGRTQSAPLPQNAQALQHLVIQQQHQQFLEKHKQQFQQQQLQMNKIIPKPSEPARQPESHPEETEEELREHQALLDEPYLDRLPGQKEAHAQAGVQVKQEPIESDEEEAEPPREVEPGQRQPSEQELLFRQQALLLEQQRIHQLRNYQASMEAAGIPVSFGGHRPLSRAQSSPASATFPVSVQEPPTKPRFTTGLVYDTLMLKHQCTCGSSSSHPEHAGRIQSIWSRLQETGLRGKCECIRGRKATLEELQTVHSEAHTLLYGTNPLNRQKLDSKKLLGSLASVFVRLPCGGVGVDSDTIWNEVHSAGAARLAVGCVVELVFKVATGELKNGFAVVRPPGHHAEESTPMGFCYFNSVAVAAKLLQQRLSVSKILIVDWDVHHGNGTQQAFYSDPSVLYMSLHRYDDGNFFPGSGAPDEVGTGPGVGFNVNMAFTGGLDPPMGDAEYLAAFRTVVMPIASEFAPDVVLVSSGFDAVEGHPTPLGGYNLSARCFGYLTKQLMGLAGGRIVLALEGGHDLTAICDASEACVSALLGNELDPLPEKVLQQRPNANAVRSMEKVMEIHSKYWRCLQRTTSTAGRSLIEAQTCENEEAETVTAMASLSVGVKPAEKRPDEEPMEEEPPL
Experimental: as §1

HDAC6 = molecular target: T1, HDAC6 (Homo sapiens, UniProt Q9UBN7)
T1 sequence (Q9UBN7 1-1215): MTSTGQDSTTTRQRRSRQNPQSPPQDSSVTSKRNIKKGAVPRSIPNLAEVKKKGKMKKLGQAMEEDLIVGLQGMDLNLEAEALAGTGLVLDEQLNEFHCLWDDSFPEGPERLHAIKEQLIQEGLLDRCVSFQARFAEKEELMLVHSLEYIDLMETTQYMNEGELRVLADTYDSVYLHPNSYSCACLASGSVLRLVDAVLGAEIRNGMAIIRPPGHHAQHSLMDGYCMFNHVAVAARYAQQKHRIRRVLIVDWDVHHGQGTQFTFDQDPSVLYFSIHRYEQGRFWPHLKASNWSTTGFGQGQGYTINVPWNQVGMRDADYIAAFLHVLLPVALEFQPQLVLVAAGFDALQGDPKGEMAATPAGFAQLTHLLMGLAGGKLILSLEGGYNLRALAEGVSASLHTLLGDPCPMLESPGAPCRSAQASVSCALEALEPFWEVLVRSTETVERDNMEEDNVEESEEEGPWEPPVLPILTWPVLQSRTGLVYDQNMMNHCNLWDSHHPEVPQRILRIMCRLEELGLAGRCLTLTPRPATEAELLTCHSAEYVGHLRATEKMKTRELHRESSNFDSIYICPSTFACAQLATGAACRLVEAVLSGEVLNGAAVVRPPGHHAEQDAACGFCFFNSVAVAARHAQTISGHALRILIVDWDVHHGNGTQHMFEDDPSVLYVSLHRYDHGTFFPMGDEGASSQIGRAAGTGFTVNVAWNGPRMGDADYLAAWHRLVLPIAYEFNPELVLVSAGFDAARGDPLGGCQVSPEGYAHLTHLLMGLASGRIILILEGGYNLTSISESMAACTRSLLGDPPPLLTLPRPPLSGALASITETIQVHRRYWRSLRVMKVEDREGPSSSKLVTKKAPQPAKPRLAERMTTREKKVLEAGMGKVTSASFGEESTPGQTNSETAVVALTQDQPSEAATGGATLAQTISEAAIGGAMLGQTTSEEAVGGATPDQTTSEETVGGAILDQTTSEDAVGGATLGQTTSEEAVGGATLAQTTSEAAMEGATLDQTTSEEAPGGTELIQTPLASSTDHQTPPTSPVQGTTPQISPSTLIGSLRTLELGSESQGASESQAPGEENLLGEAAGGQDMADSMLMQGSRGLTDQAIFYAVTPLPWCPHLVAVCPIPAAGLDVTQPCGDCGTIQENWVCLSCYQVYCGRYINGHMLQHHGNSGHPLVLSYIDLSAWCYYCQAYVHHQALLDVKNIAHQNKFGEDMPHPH
Experimental: as §1

HDAC2 = HDAC2 (Homo sapiens, UniProt Q92769)
Sequence of HDAC2 (Q92769 whole entry): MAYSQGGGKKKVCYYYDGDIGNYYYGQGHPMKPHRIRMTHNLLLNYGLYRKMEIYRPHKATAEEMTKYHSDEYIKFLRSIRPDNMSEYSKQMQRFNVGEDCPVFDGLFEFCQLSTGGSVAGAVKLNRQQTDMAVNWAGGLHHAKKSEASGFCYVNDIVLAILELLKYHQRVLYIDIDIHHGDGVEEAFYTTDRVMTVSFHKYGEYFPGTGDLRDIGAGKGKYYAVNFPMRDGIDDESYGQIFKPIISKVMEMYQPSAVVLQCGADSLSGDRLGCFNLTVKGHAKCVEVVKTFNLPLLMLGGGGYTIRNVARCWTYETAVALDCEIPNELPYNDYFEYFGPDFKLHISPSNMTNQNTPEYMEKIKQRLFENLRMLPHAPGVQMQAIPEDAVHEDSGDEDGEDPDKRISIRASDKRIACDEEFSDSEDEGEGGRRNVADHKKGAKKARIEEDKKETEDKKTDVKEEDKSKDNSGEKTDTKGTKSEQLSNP
Experimental: as §1

HDAC8 = molecular target: T2, HDAC8 (Homo sapiens, UniProt Q9BY41)
T2 sequence (Q9BY41 1-377): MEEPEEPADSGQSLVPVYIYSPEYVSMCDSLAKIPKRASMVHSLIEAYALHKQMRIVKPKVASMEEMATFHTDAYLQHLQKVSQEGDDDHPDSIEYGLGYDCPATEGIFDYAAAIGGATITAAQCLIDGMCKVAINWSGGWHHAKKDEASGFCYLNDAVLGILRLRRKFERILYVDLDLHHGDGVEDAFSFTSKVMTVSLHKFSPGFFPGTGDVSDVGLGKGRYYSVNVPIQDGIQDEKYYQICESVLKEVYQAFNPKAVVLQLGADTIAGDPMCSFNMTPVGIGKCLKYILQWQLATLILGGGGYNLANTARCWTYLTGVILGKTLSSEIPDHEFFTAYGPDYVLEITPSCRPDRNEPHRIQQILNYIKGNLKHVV
Experimental: as §1

HDAC3 = HDAC3 (Homo sapiens, UniProt O15379)
Sequence of HDAC3 (O15379 whole entry): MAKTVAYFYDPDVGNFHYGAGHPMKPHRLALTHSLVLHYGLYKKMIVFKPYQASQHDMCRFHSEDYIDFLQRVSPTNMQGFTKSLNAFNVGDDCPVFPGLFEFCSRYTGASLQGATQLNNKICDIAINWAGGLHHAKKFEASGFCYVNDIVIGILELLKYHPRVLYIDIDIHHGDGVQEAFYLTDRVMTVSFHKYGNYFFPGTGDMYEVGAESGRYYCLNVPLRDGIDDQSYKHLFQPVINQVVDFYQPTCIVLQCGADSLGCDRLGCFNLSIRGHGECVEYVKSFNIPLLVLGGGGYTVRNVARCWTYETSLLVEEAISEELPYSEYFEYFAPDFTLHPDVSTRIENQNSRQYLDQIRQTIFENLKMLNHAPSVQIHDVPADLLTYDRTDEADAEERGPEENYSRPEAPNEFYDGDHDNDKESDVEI
Sequence of HDAC3 (Q9Y618 395-489 partner limits assumed): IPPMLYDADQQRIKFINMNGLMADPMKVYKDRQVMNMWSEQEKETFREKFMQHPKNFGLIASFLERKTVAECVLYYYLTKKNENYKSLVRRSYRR
Experimental: as §1

HDAC11 = molecular target: T3, HDAC11 (Homo sapiens, UniProt Q96DB2)
T3 sequence (Q96DB2 1-347): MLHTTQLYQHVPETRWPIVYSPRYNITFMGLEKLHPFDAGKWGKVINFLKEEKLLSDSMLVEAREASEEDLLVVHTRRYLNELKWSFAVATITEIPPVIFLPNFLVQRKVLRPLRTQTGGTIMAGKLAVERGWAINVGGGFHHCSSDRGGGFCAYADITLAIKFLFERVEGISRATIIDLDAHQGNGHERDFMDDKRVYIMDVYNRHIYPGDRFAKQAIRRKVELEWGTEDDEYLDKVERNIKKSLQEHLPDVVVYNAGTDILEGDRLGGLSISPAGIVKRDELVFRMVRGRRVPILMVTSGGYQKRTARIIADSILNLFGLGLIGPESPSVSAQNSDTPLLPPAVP
Experimental: as §1

HDAC1 = HDAC1 (Homo sapiens, UniProt Q13547)
Sequence of HDAC1 (Q13547 whole entry): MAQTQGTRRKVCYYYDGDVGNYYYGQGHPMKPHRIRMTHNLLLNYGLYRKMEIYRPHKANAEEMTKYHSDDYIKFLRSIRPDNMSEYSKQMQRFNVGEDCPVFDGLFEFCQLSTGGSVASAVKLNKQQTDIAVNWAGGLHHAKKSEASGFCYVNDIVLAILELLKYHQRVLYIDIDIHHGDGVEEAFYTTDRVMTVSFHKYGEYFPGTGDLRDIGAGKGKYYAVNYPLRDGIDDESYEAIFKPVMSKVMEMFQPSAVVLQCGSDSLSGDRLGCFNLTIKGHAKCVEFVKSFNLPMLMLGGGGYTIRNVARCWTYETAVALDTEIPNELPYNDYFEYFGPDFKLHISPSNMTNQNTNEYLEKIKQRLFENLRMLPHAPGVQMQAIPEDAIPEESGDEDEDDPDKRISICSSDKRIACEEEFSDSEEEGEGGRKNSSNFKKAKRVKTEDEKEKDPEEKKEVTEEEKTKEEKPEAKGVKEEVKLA
Experimental: as §1

HDAC10 = molecular target: T4, HDAC10 (Homo sapiens, UniProt Q969S8)
T4 sequence (Q969S8 1-669): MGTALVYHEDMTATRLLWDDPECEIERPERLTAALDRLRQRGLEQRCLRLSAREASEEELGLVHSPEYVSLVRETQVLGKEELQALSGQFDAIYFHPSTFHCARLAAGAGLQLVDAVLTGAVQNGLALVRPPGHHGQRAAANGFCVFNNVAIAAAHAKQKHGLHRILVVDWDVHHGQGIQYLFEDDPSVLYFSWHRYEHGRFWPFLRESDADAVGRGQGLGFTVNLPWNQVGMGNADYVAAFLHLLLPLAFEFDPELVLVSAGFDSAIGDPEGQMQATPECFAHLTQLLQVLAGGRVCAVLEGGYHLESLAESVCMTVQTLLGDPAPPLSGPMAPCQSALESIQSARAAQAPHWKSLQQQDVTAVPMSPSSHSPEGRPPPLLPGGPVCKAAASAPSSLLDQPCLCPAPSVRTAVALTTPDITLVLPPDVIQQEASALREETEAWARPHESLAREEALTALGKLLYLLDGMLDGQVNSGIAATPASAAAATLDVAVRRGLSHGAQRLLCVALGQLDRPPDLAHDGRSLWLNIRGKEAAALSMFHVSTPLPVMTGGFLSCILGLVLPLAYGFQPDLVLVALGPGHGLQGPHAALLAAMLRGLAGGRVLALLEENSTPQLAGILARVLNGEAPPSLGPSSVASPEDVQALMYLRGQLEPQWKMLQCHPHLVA
Experimental: as §1

HDAC9 = HDAC9 (Homo sapiens, UniProt Q9UKV0)
Sequence of HDAC9 (Q9UKV0 whole entry): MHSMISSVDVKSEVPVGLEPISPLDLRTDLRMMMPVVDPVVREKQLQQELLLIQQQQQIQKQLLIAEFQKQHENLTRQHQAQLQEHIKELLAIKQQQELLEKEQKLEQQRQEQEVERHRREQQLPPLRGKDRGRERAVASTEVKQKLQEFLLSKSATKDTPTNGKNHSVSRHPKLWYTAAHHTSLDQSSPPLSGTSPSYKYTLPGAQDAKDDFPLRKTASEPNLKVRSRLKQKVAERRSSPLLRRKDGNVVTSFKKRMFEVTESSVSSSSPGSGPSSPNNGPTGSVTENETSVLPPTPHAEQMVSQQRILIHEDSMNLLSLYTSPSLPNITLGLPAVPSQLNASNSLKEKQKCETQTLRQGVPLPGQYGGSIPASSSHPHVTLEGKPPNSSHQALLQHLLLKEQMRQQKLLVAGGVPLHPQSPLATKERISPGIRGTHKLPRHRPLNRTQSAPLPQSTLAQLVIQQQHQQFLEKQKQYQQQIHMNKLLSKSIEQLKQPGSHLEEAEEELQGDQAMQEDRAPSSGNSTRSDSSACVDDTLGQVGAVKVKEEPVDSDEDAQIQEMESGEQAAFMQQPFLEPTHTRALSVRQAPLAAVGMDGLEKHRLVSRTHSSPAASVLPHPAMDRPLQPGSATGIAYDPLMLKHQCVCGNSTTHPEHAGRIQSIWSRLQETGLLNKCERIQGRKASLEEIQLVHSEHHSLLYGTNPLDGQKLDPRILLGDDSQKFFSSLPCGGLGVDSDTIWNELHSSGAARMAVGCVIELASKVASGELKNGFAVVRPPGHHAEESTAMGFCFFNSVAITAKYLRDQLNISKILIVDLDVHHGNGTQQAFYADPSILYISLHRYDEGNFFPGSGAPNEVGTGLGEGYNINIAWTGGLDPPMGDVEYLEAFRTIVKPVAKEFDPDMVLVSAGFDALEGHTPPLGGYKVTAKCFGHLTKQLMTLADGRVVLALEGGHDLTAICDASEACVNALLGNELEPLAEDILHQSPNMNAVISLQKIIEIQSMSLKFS
Experimental: as §1, with “curves.” for “curves. TSA and SAHA were used as reference compounds.”

HDAC7 = molecular target: T5, HDAC7 (Homo sapiens, UniProt Q8WUI4)
T5 sequence (Q8WUI4 1-952): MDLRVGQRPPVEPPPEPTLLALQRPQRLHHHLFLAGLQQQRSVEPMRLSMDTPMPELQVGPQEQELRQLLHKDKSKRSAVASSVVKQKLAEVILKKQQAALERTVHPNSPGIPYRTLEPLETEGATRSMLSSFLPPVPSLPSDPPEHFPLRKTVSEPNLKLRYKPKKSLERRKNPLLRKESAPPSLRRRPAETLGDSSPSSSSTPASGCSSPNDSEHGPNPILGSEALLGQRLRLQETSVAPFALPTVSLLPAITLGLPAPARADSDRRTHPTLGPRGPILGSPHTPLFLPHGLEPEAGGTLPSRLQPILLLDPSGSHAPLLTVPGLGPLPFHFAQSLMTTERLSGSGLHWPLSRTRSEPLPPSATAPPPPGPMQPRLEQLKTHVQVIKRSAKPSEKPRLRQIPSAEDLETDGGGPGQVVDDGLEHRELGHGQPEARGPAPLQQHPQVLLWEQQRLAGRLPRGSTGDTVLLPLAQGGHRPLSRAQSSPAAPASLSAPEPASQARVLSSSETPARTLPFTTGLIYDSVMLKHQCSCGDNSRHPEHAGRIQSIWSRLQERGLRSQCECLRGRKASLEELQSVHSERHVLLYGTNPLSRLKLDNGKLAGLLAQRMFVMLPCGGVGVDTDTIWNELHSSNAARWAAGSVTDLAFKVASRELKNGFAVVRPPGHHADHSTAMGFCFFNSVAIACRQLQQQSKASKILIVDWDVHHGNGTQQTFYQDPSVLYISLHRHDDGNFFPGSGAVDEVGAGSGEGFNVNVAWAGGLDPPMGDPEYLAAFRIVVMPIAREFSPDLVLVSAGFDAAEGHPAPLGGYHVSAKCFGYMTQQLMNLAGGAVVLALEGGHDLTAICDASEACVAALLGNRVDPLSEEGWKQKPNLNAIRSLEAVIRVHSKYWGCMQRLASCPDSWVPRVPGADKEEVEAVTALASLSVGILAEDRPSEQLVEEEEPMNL
Experimental: as §1, with “curves.” for “curves. TSA and SAHA were used as reference compounds.”

Sequence of HDAC5 (Q9UQL6 whole entry): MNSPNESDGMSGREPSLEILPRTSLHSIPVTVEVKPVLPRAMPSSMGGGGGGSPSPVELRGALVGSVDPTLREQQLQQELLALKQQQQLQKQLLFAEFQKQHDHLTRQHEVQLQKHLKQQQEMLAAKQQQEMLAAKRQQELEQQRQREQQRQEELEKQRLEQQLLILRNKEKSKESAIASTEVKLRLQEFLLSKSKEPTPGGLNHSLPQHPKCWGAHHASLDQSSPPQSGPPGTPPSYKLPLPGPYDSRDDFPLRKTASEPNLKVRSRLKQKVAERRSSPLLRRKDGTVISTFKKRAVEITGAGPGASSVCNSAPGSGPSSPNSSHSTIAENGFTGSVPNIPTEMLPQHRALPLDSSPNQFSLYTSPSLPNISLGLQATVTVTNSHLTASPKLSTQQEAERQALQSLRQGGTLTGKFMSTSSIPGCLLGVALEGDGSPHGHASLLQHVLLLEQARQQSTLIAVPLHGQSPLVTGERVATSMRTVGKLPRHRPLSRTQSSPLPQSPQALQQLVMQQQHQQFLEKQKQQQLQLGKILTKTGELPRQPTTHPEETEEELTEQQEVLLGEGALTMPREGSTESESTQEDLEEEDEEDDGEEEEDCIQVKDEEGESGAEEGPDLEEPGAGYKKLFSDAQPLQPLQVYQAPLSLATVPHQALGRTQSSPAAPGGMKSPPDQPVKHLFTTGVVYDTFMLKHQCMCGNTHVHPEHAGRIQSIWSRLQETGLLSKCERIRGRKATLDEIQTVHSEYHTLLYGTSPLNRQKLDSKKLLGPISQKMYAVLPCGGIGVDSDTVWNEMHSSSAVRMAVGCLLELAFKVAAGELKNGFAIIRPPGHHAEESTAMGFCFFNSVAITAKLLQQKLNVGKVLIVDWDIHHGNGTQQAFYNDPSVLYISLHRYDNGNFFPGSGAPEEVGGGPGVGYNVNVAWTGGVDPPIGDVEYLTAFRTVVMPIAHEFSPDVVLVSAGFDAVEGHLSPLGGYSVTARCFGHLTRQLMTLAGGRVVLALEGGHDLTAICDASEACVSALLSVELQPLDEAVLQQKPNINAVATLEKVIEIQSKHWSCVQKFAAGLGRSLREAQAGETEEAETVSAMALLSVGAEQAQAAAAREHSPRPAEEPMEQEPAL

| Molecule | IC50 (HDAC5) [µM] | IC50 (HDAC4) [µM] | IC50 (HDAC6) [µM] | IC50 (HDAC2) [µM] | IC50 (HDAC8) [µM] | IC50 (HDAC3) [µM] | IC50 (HDAC11) [µM] | IC50 (HDAC1) [µM] | IC50 (HDAC10) [µM] | IC50 (HDAC9) [µM] | IC50 (HDAC7) [µM] |
| --- | --- | --- | --- | --- | --- | --- | --- | --- | --- | --- | --- |
| COc1cc2cc(c1)C(=O)Nc1ccccc1NC(=O)[C@H](CCCCCC(=O)NO)OC/C=C\2 [Example 1, 6-((Z)—(S)-19-methoxy-2,11-dioxo-13-oxa-3,10-diaza-tricyclo[15.3.1.0*4,9*]henicosa-1(21),4,6,8,15,17,19-heptaen-12-yl)-hexanoic hydroxamic acid] | 1.66 | 5.33 | 0.059 | 3.28 | 0.534 | 1.11 | 0.948 | 0.864 | 2.29 | 2.02 | 4.3 |
| COc1cc2cc(c1)C(=O)Nc1ccccc1NC(=O)[C@@H](CCCCCC(=O)NO)OC/C=C\2 [Example 2, 6-((Z)—(R)-19-methoxy-2,11-dioxo-13-oxa-3,10-diaza-tricyclo[15.3.1.0*4,9*]henicosa-1(21),4,6,8,15,17,19-heptaen-12-yl)-hexanoic hydroxamic acid] | 1.34 | 3.48 | 0.075 | 2.53 | 0.682 | 0.885 | 1.11 | 1.34 | 1.88 | 1.14 | 2.07 |
| (S)-2-(6,18-dioxo-5,6,7,9,10,11,12,13,18,19-decahydrobenzo[5,6][1,4,7]-oxadiazacyclo-tetradecino[10,9-b]indol-7-yl)-N-hydroxyacetamide [Example 3] | 0.496 | 1.69 | 0.0044 | 0.584 | 0.297 | 0.331 | 0.379 | 0.245 | 0.627 | 0.602 | 2.23 |
